Starred links: 1 amine or outer side, 2 acyl side, 3 side chain; linkers in the order of their positions; H or OH if unused. Non-standard residues stand in square brackets, D forms with d. Residues, ends and D or L forms follow the SMILES beside them. Groups on a side chain read outwards from the residue. *: point of attachment. C18 diacid = O=C(O)CCCCCCCCCCCCCCCCC(=O)*; γGlu = O=C(O)[C@H](CCC(=O)[*:2])N[*:1]; AEEA = NCCOCCOCC(=O)O; Aib = CC(C)(N)C(=O)O
Target: T1, human GLP-1 receptor (Homo sapiens, UniProt P43220)
T1 construct: expressed in transfected cells; host or cells: membranes of BHK cells (parent BHKTS13), clone FCW467-12A
Assay: Assay (II)(a) GLP-1 receptor binding, 125I-GLP-1 displacement SPA on BHK membranes
Settings: without presence of serum albumin; read-out: GLP-1R IC50 (nM) [Assay (II)(a)]
Method in brief: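 Membranes from BHK cells (clone FCW467-12A) stably expressing human GLP-1R were incubated with serially diluted compounds (8×10EE-13 to 8×10EE-7 M before addition) and [125I]-GLP-1-(7-36)NH2 with WGA SPA beads, 2 h at 30° C, pH 7.4. IC50 taken from displacement by non-linear regression. Run at ≤0.001% or 2.0% final serum albumin.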

T1 sequence (P43220 24-463): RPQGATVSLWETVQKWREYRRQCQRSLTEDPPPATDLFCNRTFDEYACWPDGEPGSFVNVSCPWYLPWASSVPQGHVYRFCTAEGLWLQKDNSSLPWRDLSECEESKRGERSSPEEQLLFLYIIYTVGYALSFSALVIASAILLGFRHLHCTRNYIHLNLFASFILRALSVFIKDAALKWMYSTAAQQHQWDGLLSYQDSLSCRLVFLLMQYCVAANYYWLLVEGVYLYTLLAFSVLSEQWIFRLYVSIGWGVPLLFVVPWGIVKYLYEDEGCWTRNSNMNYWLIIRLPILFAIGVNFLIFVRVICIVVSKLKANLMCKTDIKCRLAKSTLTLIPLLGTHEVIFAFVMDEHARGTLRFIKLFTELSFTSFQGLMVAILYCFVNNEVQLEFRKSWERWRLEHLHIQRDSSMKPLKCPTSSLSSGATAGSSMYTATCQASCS

| IC50 [nM] | SMILES |
| --- | --- |
| 0.1 | CC[C@H](C)[C@H](NC(=O)[C@H](CC(C)C)NC(=O)[C@H](Cc1c[nH]c2ccccc12)NC(=O)[C@H](CCC(N)=O)NC(=O)[C@@H](NC(=O)[C@H](Cc1ccccc1)NC(=O)[C@H](CCC(=O)O)NC(=O)[C@H](CCCNC(=N)N)NC(=O)[C@H](C)NC(=O)[C@H](CCCNC(=N)N)NC(=O)[C@H](CCCNC(=N)N)NC(=O)[C@H](CO)NC(=O)[C@H](CCC(=O)O)NC(=O)[C@H](CC(C)C)NC(=O)[C@H](Cc1ccc(O)cc1)NC(=O)[C@H](CCCCN)NC(=O)[C@H](CO)NC(=O)[C@H](CC(C)C)NC(=O)[C@H](CC(=O)O)NC(=O)[C@H](CO)NC(=O)[C@@H](NC(=O)[C@H](Cc1ccccc1)NC(=O)[C@@H](NC(=O)CNC(=O)[C@H](CCC(N)=O)NC(=O)C(C)(C)NC(=O)[C@@H](N)Cc1c[nH]cn1)[C@@H](C)O)[C@@H](C)O)C(C)C)C(=O)N[C@@H](CCCCNC(=O)CC[C@H](NC(=O)CC[C@H](NC(=O)COCCOCCNC(=O)COCCOCCNC(=O)CC[C@H](NC(=O)CC[C@H](NC(=O)CCCCCCCCCCCCCCCCC(=O)O)C(=O)O)C(=O)O)C(=O)O)C(=O)O)C(=O)N[C@H](C(N)=O)[C@@H](C)O [Chem. 25, N^ε28-[(4S)-4-carboxy-4-[[(4S)-4-carboxy-4-[[2-[2-[2-[[2-[2-[2-[[(4S)-4-carboxy-4-[[(4S)-4-carboxy-4-(17-carboxyheptadecanoylamino)butanoyl]amino]butanoyl]amino]ethoxy]ethoxy]acetyl]amino]ethoxy]ethoxy]acetyl]amino]butanoyl]amino]butanoyl]-[Aib2,Leu10,Glu15,Arg20,Glu21,Ile27,Lys28]-Glucagon amide] (H-H[Aib]QGTFTSDLSKYLESRRAREFVQWLIK([γGlu-γGlu-AEEA-AEEA-γGlu-γGlu-C18 diacid])T-NH2; N-terminus assumed) |
| 1.5 | CC[C@H](C)[C@H](NC(=O)[C@H](CC(C)C)NC(=O)[C@H](Cc1c[nH]c2ccccc12)NC(=O)[C@H](CCC(N)=O)NC(=O)[C@@H](NC(=O)[C@H](Cc1ccccc1)NC(=O)[C@H](CC(=O)O)NC(=O)[C@H](CCCNC(=N)N)NC(=O)[C@H](C)NC(=O)[C@H](CCCNC(=N)N)NC(=O)[C@H](CCCNC(=N)N)NC(=O)[C@H](CO)NC(=O)[C@H](CCC(=O)O)NC(=O)[C@H](CC(C)C)NC(=O)[C@H](Cc1ccc(O)cc1)NC(=O)[C@H](CCCNC(=N)N)NC(=O)[C@H](CO)NC(=O)[C@H](Cc1ccc(O)cc1)NC(=O)[C@H](CC(=O)O)NC(=O)[C@H](CO)NC(=O)[C@@H](NC(=O)[C@H](Cc1ccccc1)NC(=O)[C@@H](NC(=O)CNC(=O)[C@H](CCC(N)=O)NC(=O)C(C)(C)NC(=O)[C@@H](N)Cc1c[nH]cn1)[C@@H](C)O)[C@@H](C)O)C(C)C)C(=O)N[C@@H](CCCCNC(=O)CC[C@H](NC(=O)COCCOCCNC(=O)CC[C@H](NC(=O)COCCOCCNC(=O)CC[C@H](NC(=O)COCCOCCNC(=O)CC[C@H](NC(=O)CC[C@H](NC(=O)CCCCCCCCCCCCCCCCC(=O)O)C(=O)O)C(=O)O)C(=O)O)C(=O)O)C(=O)O)C(=O)N[C@H](C(N)=O)[C@@H](C)O [Chem. 37, N^28-[(4S)-4-carboxy-4-[[2-[2-[2-[[(4S)-4-carboxy-4-[[2-[2-[2-[[(4S)-4-carboxy-4-[[2-[2-[2-[[(4S)-4-carboxy-4-[[(4S)-4-carboxy-4-(17-carboxyheptadecanoylamino)butanoyl]amino]butanoyl]amino]ethoxy]ethoxy]acetyl]amino]butanoyl]amino]ethoxy]ethoxy]acetyl]amino]butanoyl]amino]ethoxy]ethoxy]acetyl]amino]butanoyl]-[Aib2,Arg12,Glu15,Arg20,Ile27,Lys28]-Glucagon amide] (H-H[Aib]QGTFTSDYSRYLESRRARDFVQWLIK([γGlu-AEEA-γGlu-AEEA-γGlu-AEEA-γGlu-γGlu-C18 diacid])T-NH2; N-terminus assumed) |
| 0.3 | CC[C@H](C)[C@H](NC(=O)[C@H](CC(C)C)NC(=O)[C@H](Cc1c[nH]c2ccccc12)NC(=O)[C@H](C)NC(=O)[C@@H](NC(=O)[C@H](Cc1ccccc1)NC(=O)[C@H](CC(=O)O)NC(=O)[C@H](CCCNC(=N)N)NC(=O)[C@H](C)NC(=O)[C@H](CCCNC(=N)N)NC(=O)[C@H](CCCNC(=N)N)NC(=O)[C@H](C)NC(=O)[C@H](CC(=O)O)NC(=O)[C@H](CC(C)C)NC(=O)[C@H](Cc1ccc(O)cc1)NC(=O)[C@H](CCCCN)NC(=O)[C@H](CO)NC(=O)[C@H](Cc1ccc(O)cc1)NC(=O)[C@H](CC(=O)O)NC(=O)[C@H](CO)NC(=O)[C@@H](NC(=O)[C@H](Cc1ccccc1)NC(=O)[C@@H](NC(=O)CNC(=O)[C@H](CCC(N)=O)NC(=O)C(C)(C)NC(=O)[C@@H](N)Cc1c[nH]cn1)[C@@H](C)O)[C@@H](C)O)C(C)C)C(=O)N[C@@H](CCCCNC(=O)CC[C@H](NC(=O)CC[C@H](NC(=O)COCCOCCNC(=O)COCCOCCNC(=O)CC[C@H](NC(=O)CCCCCCCCCCCCCCCCC(=O)O)C(=O)O)C(=O)O)C(=O)O)C(=O)N[C@H](C(N)=O)[C@@H](C)O [Chem. 32, N^ε28-[(4S)-4-carboxy-4-[[(4S)-4-carboxy-4-[[2-[2-[2-[[2-[2-[2-[[(4S)-4-carboxy-4-(17-carboxyheptadecanoylamino)butanoyl]amino]ethoxy]ethoxy]acetyl]amino]ethoxy]ethoxy]acetyl]amino]butanoyl]amino]butanoyl]-[Aib2,Ala16,Arg20,Ala24,Ile27,Lys28]-Glucagon amide] (H-H[Aib]QGTFTSDYSKYLDARRARDFVAWLIK([γGlu-γGlu-AEEA-AEEA-γGlu-C18 diacid])T-NH2) |

Source: patent US10570184B2, “GLP-1/glucagon receptor co-agonists for medical use” (Novo Nordisk A/S, priority 2014, dated 2020)
